Starred links: 1 amine or outer side, 2 acyl side, 3 side chain; linkers in the order of their positions; H or OH if unused. Non-standard residues stand in square brackets, D forms with d. Residues, ends and D or L forms follow the SMILES beside them. No end group written: not given here. *: point of attachment. X2 = CCN1C(=O)CC(SC[C@H](NC(C)=O)C(=O)NCCCOCCOCCOCCCN*)C1=O; Succinimide(1-Et,3-yl) = CCN1C(=O)CC(*)C1=O; Palmitoyl = CCCCCCCCCCCCCCCC(=O)*; Suc = O=C(CCC(=O)[*:2])[*:1]
Target: T1, Mouse NMUR1-CTG (Mus musculus, UniProt O55040)
T1 sequence (O55040 1-428): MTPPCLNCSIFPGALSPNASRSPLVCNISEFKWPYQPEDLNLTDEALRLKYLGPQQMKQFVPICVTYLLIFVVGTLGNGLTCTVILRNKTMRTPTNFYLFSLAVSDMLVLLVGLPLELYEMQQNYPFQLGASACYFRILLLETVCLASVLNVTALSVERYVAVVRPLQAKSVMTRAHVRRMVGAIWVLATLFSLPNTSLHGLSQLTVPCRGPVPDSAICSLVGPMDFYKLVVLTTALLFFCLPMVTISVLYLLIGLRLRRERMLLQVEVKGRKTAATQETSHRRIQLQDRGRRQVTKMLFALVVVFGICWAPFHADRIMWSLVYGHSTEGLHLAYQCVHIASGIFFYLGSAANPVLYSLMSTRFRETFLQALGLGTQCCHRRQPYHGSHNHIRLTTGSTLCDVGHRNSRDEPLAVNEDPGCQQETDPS
Assay: FLIPR calcium mobilization assay, mouse NMUR1-CTG
Type: cell-based
Design: expressed in transfected cells; host or cells: FLP-In CHO or HEK-293 FLP-In cells (pcDNA5)
Conditions: for EC50: FLIPR
Source text: Human, mouse or rat cDNAs encoding NMUR1 or NMUR2 (as described in Howard et al. Nature 406: 70-74 (2000) were subcloned in pcDNA5 (Invitrogen) and transfected into FLP-In CHO cells and HEK-293 FLP-In cells purchased from Invitrogen (Carlsbad, Calif.) using lipofectamine (Invitrogen). The Flp-In system allows integration and expression of a particular gene of interest at a specific genomic location utilizing the Flp recombinase from yeast. The transfected cells were selected by growth in medium containing 200 μg/mL hygromycin (Invitrogen). Populations were frozen at early passage numbers, and these stocks were used for further studies. Stable clones that expressed the mRNAs were identified functionally by FLIPR as well as by RT-PCR. […] Two different rodent NMUR1 cell lines were thus generated: one with the codon as predicted from the genomic databases and another cell line with an engineered methionine (ATG) as the start codon. Additionally, stable cell lines expressing the human receptors were generated in HEK-293/aeq17 cells which stably express the aequorin gene under the CMV promoter. The human NMUR2 cDNA was cloned into pcDNA3.1 and human NMUR1 was subcloned into pIRES-puro (Clontech, Mountain View, Calif.), after transfection cells were selected in media containing G418 and either hygromycin (NMUR2) or puromycin (NMUR1).
The NMU receptors signal primarily through Gαq/11 proteins; therefore calcium mobilization assays can be utilized for functional activity.
Stable cell lines expressing human and or rodent NMUR1 or human NMUR2 receptors were plated at a density of 12,000 cells per well overnight on poly-lysine coated 384-well black-walled plates. The following day, the media was removed from the plates and the cells were subsequently loaded with Fluo-3 (Molecular Probes), a calcium sensitive dye, diluted in FLIPR buffer (1× Hank's buffered saline containing 20 mM HEPES, 0.1% BSA, 2.5 mM probenecid (Sigma) and 1.6 mM TR40). All reagents are from Invitrogen unless otherwise noted. Peptide stocks were resuspended in DMSO at a stock concentration of 2 mM and diluted in FLIPR buffer on the day of the experiment to a 4 μM working stock solution.
After a 90 minute incubation at room-temperature, cell plates were loaded onto a FLIPR (Molecular Devices) to monitor cellular fluorescence (excitation=488 nm; emission=540 nm) before and after compound/peptide addition. Eight to twelve point dose responses were tested on NMUR-expressing cell lines using FLIPR with 1 μM peptide as the highest dose. The response after peptide addition was taken as the maximum fluorescence units minus the fluorescence immediately prior to stimulation for each well. EC50 values were calculated using GraphPad Prism (San Diego, Calif.) software.
In vitro responses of Neuromedin U receptor agonists (NMU1 to NMU25) in the FLIPR assay for human (Table 3), mouse (Table 4) and rat (Table 5) NMUR1 and NMUR2. EC50s are reported in nM values. Percent activity refers to the maximum response at 1 μM compared to the hNMU-25 response at the same concentration. NT=not tested.

[1] = maximum response at 1 μM compared to hNMU-25, mouse NMUR1-CTG

Compound	EC50 (mouse NMUR1-CTG) [nM]	% Activity [1] [%]	IC50 (functional data, mouse R1-CTG) [nM]	% Activity (functional, mouse R1-CTG, relative to native hNMU responses) [%]
CCN1C(=O)CC(SC[C@H](NC(C)=O)C(=O)N[C@@H](Cc2ccccc2)C(=O)N[C@@H](CCCNC(=N)N)C(=O)N[C@H](C(=O)N[C@@H](CC(=O)O)C(=O)N[C@@H](CCC(=O)O)C(=O)N[C@@H](CCC(=O)O)C(=O)N[C@@H](Cc2ccccc2)C(=O)N[C@@H](CCC(N)=O)C(=O)N[C@@H](CO)C(=O)N2CCC[C@H]2C(=O)N[C@@H](Cc2ccccc2)C(=O)N[C@@H](C)C(=O)N[C@@H](CO)C(=O)N[C@@H](CCC(N)=O)C(=O)N[C@@H](CO)C(=O)N[C@@H](CCCNC(=N)N)C(=O)NCC(=O)N[C@@H](Cc2ccc(O)cc2)C(=O)N[C@@H](Cc2ccccc2)C(=O)N[C@H](C)C(=O)N[C@@H](Cc2c[nH]c3ccccc23)C(=O)N[C@@H](CCCNC(=N)N)C(=O)N2CCC[C@H]2C(=O)N[C@@H](CCCNC(=N)N)C(=O)N[C@@H](CC(N)=O)C(N)=O)C(C)C)C1=O (stereo partly shown) [NMU13] (Ac-C(Succinimide(1-Et,3-yl))FRVDEEFQSPFASQSRGYF[dA]WRPRN-NH2)	141	73.6	14	88
Ac-FRVDEEFQSPFASQSRPYFLFRPRN-NH2 [NMU5]		100		
Ac-FRVDEEFQSPFASQSRGYFLFRPRN-NH2 [NMU2]		100		
CCN1C(=O)CC(SC[C@H](NC(C)=O)C(=O)NCC(=O)N[C@@H](Cc2ccc(O)cc2)C(=O)N[C@@H](Cc2ccccc2)C(=O)N[C@@H](CC(C)C)C(=O)N[C@@H](Cc2ccccc2)C(=O)N[C@@H](CCCNC(=N)N)C(=O)N2CCC[C@H]2C(=O)N[C@@H](CCCNC(=N)N)C(=O)N[C@@H](CC(N)=O)C(N)=O)C1=O (stereo partly shown) [NMU6] (Ac-C(Succinimide(1-Et,3-yl))GYFLFRPRN-NH2)		100		
H-FRVDEEFQSPFASQSRPYFLFRPRN-NH2 [NMU4]		100		
GYFLFRPRN-NH2 [NMU3]		100		

Now from value to compound, other results behind:

EC50 (mouse NMUR1-CTG) [nM]	% Activity [1] [%]	Compound	IC50 (functional data, mouse R1-CTG) [nM]	% Activity (functional, mouse R1-CTG, relative to native hNMU responses) [%]
770	50.9	Ac-C4-C4-FRVDEEFQSPFASQSRGYFLFRPRN-CONH2 ({Ac-C(PEG 20 kDa)-C(PEG 20 kDa)}-FRVDEEFQSPFASQSRGYFLFRPRN-NH2) [NMU23, C4 = Cys(PEG)20 kDa]		
	110.8	CCN1C(=O)CC(SC[C@H](NC(C)=O)C(=O)N[C@@H](Cc2ccccc2)C(=O)N[C@@H](CCC(N)=O)C(=O)N[C@@H](CO)C(=O)N2CCC[C@H]2C(=O)N[C@@H](Cc2ccccc2)C(=O)N[C@@H](C)C(=O)N[C@@H](CO)C(=O)N[C@@H](CCC(N)=O)C(=O)N[C@@H](CO)C(=O)N[C@@H](CCCNC(=N)N)C(=O)NCC(=O)N[C@@H](Cc2ccc(O)cc2)C(=O)N[C@@H](Cc2ccccc2)C(=O)N[C@@H](CC(C)C)C(=O)N[C@@H](Cc2ccccc2)C(=O)N[C@@H](CCCNC(=N)N)C(=O)N2CCC[C@H]2C(=O)N[C@@H](CCCNC(=N)N)C(=O)N[C@@H](CC(N)=O)C(N)=O)C1=O (stereo partly shown) [NMU19] (Ac-C(Succinimide(1-Et,3-yl))FQSPFASQSRGYFLFRPRN-NH2)		
	100	CCN1C(=O)CC(SC[C@H](NC(C)=O)C(=O)N[C@@H](CSC2CC(=O)N(CC)C2=O)C(=O)N[C@@H](Cc2ccccc2)C(=O)N[C@@H](CCCNC(=N)N)C(=O)N[C@H](C(=O)N[C@@H](CC(=O)O)C(=O)N[C@@H](CCC(=O)O)C(=O)N[C@@H](CCC(=O)O)C(=O)N[C@@H](Cc2ccccc2)C(=O)N[C@@H](CCC(N)=O)C(=O)N[C@@H](CO)C(=O)N2CCC[C@H]2C(=O)N[C@@H](Cc2ccccc2)C(=O)N[C@@H](C)C(=O)N[C@@H](CO)C(=O)N[C@@H](CCC(N)=O)C(=O)N[C@@H](CO)C(=O)N[C@@H](CCCNC(=N)N)C(=O)NCC(=O)N[C@@H](Cc2ccc(O)cc2)C(=O)N[C@@H](Cc2ccccc2)C(=O)N[C@@H](CC(C)C)C(=O)N[C@@H](Cc2ccccc2)C(=O)N[C@@H](CCCNC(=N)N)C(=O)N2CCC[C@H]2C(=O)N[C@@H](CCCNC(=N)N)C(=O)N[C@@H](CC(N)=O)C(N)=O)C(C)C)C1=O (stereo partly shown) [NMU22] (Ac-C(Succinimide(1-Et,3-yl))C(Succinimide(1-Et,3-yl))FRVDEEFQSPFASQSRGYFLFRPRN-NH2)		
56.3	90.8	Ac-C4FRVDEEFQSPFASQSRGYFLFRPRN-CONH2 ({Ac-C(PEG 20 kDa)}-FRVDEEFQSPFASQSRGYFLFRPRN-NH2) [NMU21, C4 = Cys(PEG)20 kDa]		
	56.1	CCCCCCCCCCCCCCCC(=O)N[C@@H](CSC1CC(=O)N(CC)C1=O)C(=O)N[C@@H](Cc1ccccc1)C(=O)N[C@@H](CCCNC(=N)N)C(=O)N[C@H](C(=O)N[C@@H](CC(=O)O)C(=O)N[C@@H](CCC(=O)O)C(=O)N[C@@H](CCC(=O)O)C(=O)N[C@@H](Cc1ccccc1)C(=O)N[C@@H](CCC(N)=O)C(=O)N[C@@H](CO)C(=O)N1CCC[C@H]1C(=O)N[C@@H](Cc1ccccc1)C(=O)N[C@@H](C)C(=O)N[C@@H](CO)C(=O)N[C@@H](CCC(N)=O)C(=O)N[C@@H](CO)C(=O)N[C@@H](CCCNC(=N)N)C(=O)NCC(=O)N[C@@H](Cc1ccc(O)cc1)C(=O)N[C@@H](Cc1ccccc1)C(=O)N[C@@H](CC(C)C)C(=O)N[C@@H](Cc1ccccc1)C(=O)N[C@@H](CCCNC(=N)N)C(=O)N1CCC[C@H]1C(=O)N[C@@H](CCCNC(=N)N)C(=O)N[C@@H](CC(N)=O)C(N)=O)C(C)C (stereo partly shown) [NMU24] (Palmitoyl-C(Succinimide(1-Et,3-yl))FRVDEEFQSPFASQSRGYFLFRPRN-NH2)		
2.9	116.6	CCN1C(=O)CC(SC[C@H](NC(C)=O)C(=O)N[C@@H](C)C(=O)N[C@@H](CO)C(=O)N[C@@H](CCC(N)=O)C(=O)N[C@@H](CO)C(=O)N[C@@H](CCCNC(=N)N)C(=O)NCC(=O)N[C@@H](Cc2ccc(O)cc2)C(=O)N[C@@H](Cc2ccccc2)C(=O)N[C@@H](CC(C)C)C(=O)N[C@@H](Cc2ccccc2)C(=O)N[C@@H](CCCNC(=N)N)C(=O)N2CCC[C@H]2C(=O)N[C@@H](CCCNC(=N)N)C(=O)N[C@@H](CC(N)=O)C(N)=O)C1=O (stereo partly shown) [NMU17] (Ac-C(Succinimide(1-Et,3-yl))ASQSRGYFLFRPRN-NH2)		
	100	CCN1C(=O)CC(SC[C@H](NC(C)=O)C(=O)NCCCOCCOCCOCCCNC(=O)CCC(=O)N[C@@H](Cc2ccccc2)C(=O)N[C@@H](CC(C)C)C(=O)N[C@@H](Cc2ccccc2)C(=O)N[C@@H](CCCNC(=N)N)C(=O)N2CCC[C@H]2C(=O)N[C@@H](CCCNC(=N)N)C(=O)N[C@@H](CC(N)=O)C(N)=O)C1=O (stereo partly shown) [NMU15, Ac-C1-Ttds-FLFRPRN-CONH2] ({X2-Suc}-FLFRPRN-NH2)		
480	65.4	Ac-C2FQSPFASQSRGYFLFRPRN-CONH2 ({Ac-C(PEG 40 kDa)}-FQSPFASQSRGYFLFRPRN-NH2; not fully specified; printed as Ac-C2FQSPFASQSRGYFLFRPRN-CONH2) [NMU20, C2 = Cys(PEG)240 kDa]		
60.3		Pam-C2FRVDEEFQSPFASQSRGYFLFRPRN-CONH2 ({Palmitoyl-C(PEG 40 kDa)}-FRVDEEFQSPFASQSRGYFLFRPRN-NH2) [NMU25, Pam = palmitoyl; C2 = Cys(PEG)240 kDa]		
